Results: ChEMBL document CHEMBL1201862, “PubChem BioAssay data set” (2004)
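Cultured in 96-well plates, cells were exposed to test compound for 48 hours across five concentrations. GI50: concentration for 50% inhibition of growth.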 The source made the active and inactive calls. Cut-off read from the data, not from the text of the source: active = GI50 up to about 1.1 µM and inactive = higher.

Columns and labels:
Assay in all cases: NCI tumour cell line growth inhibition, 48 h
RXF 393 = tested on: RXF 393
UACC-62 = tested on: UACC-62
SNB-75 = tested on: SNB-75
DU-145 = tested on: DU-145
SK-OV-3 = tested on: SK-OV-3
MOLT-4 = tested on: MOLT-4
K562 = tested on: K562
HOP-62 = tested on: HOP-62
IGROV-1 = tested on: IGROV-1
COLO 205 = tested on: COLO 205
MCF7 = tested on: MCF7
SN12C = tested on: SN12C
SF-268 = tested on: SF-268
PC-3 = tested on: PC-3
MDA-MB-435 = tested on: MDA-MB-435
SK-MEL-28 = tested on: SK-MEL-28
NCI/ADR-RES = tested on: NCI/ADR-RES
OVCAR-3 = tested on: OVCAR-3
NCI-H522 = tested on: NCI-H522
Hs-578T = tested on: Hs-578T

Measured: GI50

O=C(Nc1ccccc1)C(=O)C(C(=O)c1ccccc1)C(c1ccccc1)c1ccccc1 (stereo not given)
inactive: RXF 393 > 10 µM | UACC-62 > 10 µM | SNB-75 > 10 µM | DU-145 > 10 µM | SK-OV-3 > 10 µM | MOLT-4 > 10 µM | K562 > 10 µM | HOP-62 > 10 µM | IGROV-1 > 10 µM | COLO 205 > 10 µM | MCF7 > 10 µM | SN12C > 10 µM | SF-268 > 10 µM | PC-3 > 10 µM | MDA-MB-435 > 10 µM | SK-MEL-28 > 10 µM

Cc1sc(Nc2ccccc2[N+](=O)[O-])c(C#N)c1C
inactive: RXF 393 5.12 µM | UACC-62 77.8 µM | NCI/ADR-RES 16.8 µM | SNB-75 12.1 µM | DU-145 65.2 µM | SK-OV-3 66.1 µM | MOLT-4 > 100 µM | OVCAR-3 19.8 µM | K562 > 100 µM | HOP-62 20.8 µM | COLO 205 > 100 µM | MCF7 94.2 µM | SN12C 40.3 µM | SF-268 14.5 µM | PC-3 94.8 µM | MDA-MB-435 > 100 µM | SK-MEL-28 99.3 µM | NCI-H522 2.7 µM

CCOC(=O)C1=C(C)N(C)C23OC4(C(=O)OC)CC2c2ccccc2C1N3C4=O (stereo not given)
inactive: UACC-62 > 100 µM | NCI/ADR-RES 86.9 µM | SNB-75 > 100 µM | DU-145 > 100 µM | SK-OV-3 > 100 µM | MOLT-4 74.8 µM | OVCAR-3 > 100 µM | K562 83 µM | HOP-62 > 100 µM | IGROV-1 > 100 µM | COLO 205 > 100 µM | MCF7 28.1 µM | SN12C 79.3 µM | SF-268 > 100 µM | PC-3 > 100 µM | MDA-MB-435 30.8 µM | SK-MEL-28 > 100 µM | NCI-H522 37.4 µM

S=C1CNC(=S)CN1
inactive: RXF 393 > 100 µM | UACC-62 > 100 µM | SNB-75 > 100 µM | SK-OV-3 > 100 µM | MOLT-4 > 100 µM | OVCAR-3 > 100 µM | K562 > 100 µM | HOP-62 > 100 µM | IGROV-1 > 100 µM | COLO 205 > 100 µM | SN12C > 100 µM | SF-268 > 100 µM | SK-MEL-28 > 100 µM | NCI-H522 > 100 µM

CC(C)=CC(=O)Cc1nc2ccc([N+](=O)[O-])cc2[nH]c1=O
inactive: RXF 393 > 100 µM | UACC-62 > 100 µM | SNB-75 18.5 µM | SK-OV-3 > 100 µM | MOLT-4 25.2 µM | OVCAR-3 > 100 µM | K562 83.8 µM | HOP-62 > 100 µM | IGROV-1 > 100 µM | COLO 205 > 100 µM | SN12C > 100 µM | SF-268 > 100 µM | SK-MEL-28 > 100 µM | NCI-H522 23.9 µM

CNC(=O)C1CCc2nnc(-c3ccccc3)n21 (stereo not given)
inactive: RXF 393 > 100 µM | UACC-62 > 100 µM | SNB-75 > 100 µM | SK-OV-3 > 100 µM | MOLT-4 > 100 µM | OVCAR-3 > 100 µM | K562 > 100 µM | HOP-62 > 100 µM | IGROV-1 > 100 µM | COLO 205 > 100 µM | SN12C > 100 µM | SF-268 > 100 µM | SK-MEL-28 > 100 µM | NCI-H522 > 100 µM

N#C[BH2-][n+]1cn(C2CC(O)C(COP(=O)(O)OC3CC(n4cnc5c(N)ncnc54)OC3CO)O2)c2nc(N)[nH]c(=O)c21 (stereo not given)
inactive: RXF 393 > 100 µM | UACC-62 > 100 µM | NCI/ADR-RES > 100 µM | SNB-75 > 100 µM | DU-145 > 100 µM | OVCAR-3 > 100 µM | HOP-62 > 100 µM | IGROV-1 > 100 µM | COLO 205 > 100 µM | MCF7 > 100 µM | SN12C > 100 µM | SF-268 > 100 µM | PC-3 > 100 µM | MDA-MB-435 > 100 µM | SK-MEL-28 > 100 µM | NCI-H522 > 100 µM

O=C(O)c1cc(Cl)cc(NC(=O)C(Cl)Cl)c1Cl
inactive: RXF 393 > 100 µM | UACC-62 > 100 µM | SNB-75 > 100 µM | SK-OV-3 > 100 µM | MOLT-4 > 100 µM | OVCAR-3 > 100 µM | K562 > 100 µM | HOP-62 > 100 µM | IGROV-1 > 100 µM | COLO 205 > 100 µM | SN12C > 100 µM | SF-268 > 100 µM | SK-MEL-28 > 100 µM | NCI-H522 > 100 µM

O=C1Nc2c(Cl)cc(Cl)cc2C1=O
inactive: RXF 393 13.6 µM | Hs-578T 16.4 µM | UACC-62 15.8 µM | NCI/ADR-RES 19.7 µM | SNB-75 6.03 µM | SK-OV-3 77.4 µM | MOLT-4 18 µM | OVCAR-3 20.3 µM | K562 29.2 µM | HOP-62 18.5 µM | IGROV-1 17.7 µM | COLO 205 23.5 µM | MCF7 18.5 µM | SN12C 17.9 µM | PC-3 24.3 µM | MDA-MB-435 4.27 µM | SK-MEL-28 17.7 µM

N[C@@H](CCC(=O)NCP(=O)(O)O)C(=O)O
inactive: Hs-578T > 100 µM | UACC-62 > 100 µM | NCI/ADR-RES > 100 µM | MOLT-4 > 100 µM | OVCAR-3 > 100 µM | K562 > 100 µM | HOP-62 > 100 µM | IGROV-1 > 100 µM | COLO 205 > 100 µM | MCF7 > 100 µM | SN12C > 100 µM | PC-3 > 100 µM | MDA-MB-435 > 100 µM | SK-MEL-28 > 100 µM | NCI-H522 18.2 µM

COC(=O)C1(Cc2cccc(Cl)c2)CCCCCCN1C(=O)c1ccccc1 (stereo not given)
inactive: UACC-62 11.1 µM | NCI/ADR-RES 16.9 µM | SNB-75 13 µM | DU-145 19.3 µM | SK-OV-3 19.2 µM | MOLT-4 8.89 µM | OVCAR-3 6.71 µM | K562 10.7 µM | HOP-62 15.5 µM | IGROV-1 19.1 µM | COLO 205 15.5 µM | MCF7 13.5 µM | SN12C 14.5 µM | SF-268 20.6 µM | PC-3 4.98 µM | MDA-MB-435 18.9 µM | SK-MEL-28 14.9 µM

CC(C(N)=O)N(C)C(=O)c1cc2ccccc2[n+](Cc2ccccc2)c1 (stereo not given)
inactive: RXF 393 > 100 µM | UACC-62 > 100 µM | NCI/ADR-RES > 100 µM | SNB-75 > 100 µM | DU-145 > 100 µM | MOLT-4 > 100 µM | OVCAR-3 > 100 µM | K562 > 100 µM | IGROV-1 > 100 µM | COLO 205 > 100 µM | MCF7 > 100 µM | SN12C > 100 µM | SF-268 > 100 µM | PC-3 > 100 µM | MDA-MB-435 > 100 µM | SK-MEL-28 > 100 µM | NCI-H522 > 100 µM
